Consider 8 molecules from article PMC8941652 (European journal of medicinal chemistry, 2022).

In data set [1] the test system is Mycobacterium tuberculosis H37Rv. The class given is cell-based. The note with it: for MIC: H37Rv, 7H9 liquid medium, at least 90% growth inhibition, 10 days.
The format of data set [2] is in vivo, CD-1 female mice. Particulars: p.o. 25 mg/kg, CMC/Tween80 suspension, compared with parent PAS.
For data set [3], the system named is Drug susceptible Mtb strains. Briefly: microbe, parasite or virus in culture. Type of data set: cell-based. Particulars: Mycobacterium tuberculosis.
In data set [4] the test system is Mycobacterium tuberculosis. The note with it: cited from earlier work.
For data set [5] the following is noted: p.o. 25 mg/kg.

Like-named read-outs stand apart in the source and are kept apart here.

`CC(C)OC(=O)c1ccc(N)cc1O` [Compound 5, Isopropyl 4-amino-2-hydroxybenzoate]: the MIC entry in data set [1] is “abolished activity”.
Turning to `CC(C)(C)C(=O)OCOC(=O)c1ccc(N)cc1O` [Compound 6, (Pivaloyloxy)methyl 4-amino-2-hydroxybenzoate], in data set [2], the “oral bioavailability of PAS released from the suspension of prodrug” value is on record as “significantly lower than the parent PAS”.
As to `Nc1cc(O)c(C(=O)O)cc1F` [Compound 11, 4-Amino-5-fluoro-2-hydroxybenzoic acid], the MIC was 6.3 to 25 µM in data set [3]; 6.3 to 50 µg/mL in data set [3] (read-out: MICs against the drug susceptible and MDR strains).
With `CNc1ccc(C(=O)O)c(O)c1` [Compound 14, 2-Hydroxy-4-(methylamino)benzoic acid], in data set [4], the “antitubercular potency relative to PAS” value is “nearly equipotent to PAS”. In addition, the MIC entry in data set [1] is “inactive”.
For the molecule `[N-]=[N+]=Nc1ccc(C(=O)O)c(O)c1` [Compound 15, 4-Azido-2-hydroxybenzoic acid], in data set [5], the “formation of PAS in vivo” value is on record as “no formation of PAS in vivo”. In addition, the “loss of activity compared to PAS” value in data set [1] (H37Rv MIC) is listed as roughly 200 fold. Further, in data set [1], the MIC entry was “weakly active”.
For the molecule `CCOC(=O)c1cc(F)c(N)cc1O` [Compound 16, Ethyl 4-amino-5-fluoro-2-hydroxybenzoate], in data set [1], the MIC entry is “inactive”.
In data set [3], `CC(=O)NC[C@H]1CN(c2ccc(N3CCOCC3)c(F)c2)C(=O)O1` [Linezolid] registered an MIC of 0.7 to 1.9 µM.
Regarding `Nc1ccc(C(=O)O)c(O)c1` [PAS, para-Aminosalicylic acid], the MIC in data set [3] fell in the range of 0.2 to 0.6 µM.
